Tests used:
Homo sapiens = species: Homo sapiens; experiment: Concentration that inhibits platelet aggregation induced by ADP (7 uM) by 50%; assay type: functional
Adenosine A2 receptor [1] = target: Adenosine A2 receptor (Homo sapiens, UniProt P29275+P29274)
Description: Stimulation of adenylate cyclase activity in human platelet membrane at A2 receptor

Adenosine receptor A1 [2] = target: T1, Adenosine receptor A1 (Rattus norvegicus, UniProt P25099); experiment: Inhibition of Adenylate cyclase activity in rat fat cell membrane at adenosine A1 receptor; assay type: cell-based
T1 sequence (P25099 whole entry): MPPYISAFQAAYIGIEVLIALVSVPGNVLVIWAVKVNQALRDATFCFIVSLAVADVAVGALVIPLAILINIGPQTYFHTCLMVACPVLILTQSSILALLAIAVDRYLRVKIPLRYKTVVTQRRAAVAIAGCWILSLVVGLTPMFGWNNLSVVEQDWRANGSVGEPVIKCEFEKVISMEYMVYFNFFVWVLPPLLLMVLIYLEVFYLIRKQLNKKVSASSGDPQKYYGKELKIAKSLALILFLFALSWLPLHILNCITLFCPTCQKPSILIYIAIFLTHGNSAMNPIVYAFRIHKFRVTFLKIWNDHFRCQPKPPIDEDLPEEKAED

Adenosine A2 receptor [3] = target: Adenosine A2 receptor (Rattus norvegicus, UniProt P29276+P30543)
Adenosine receptor A1 [4] = target: T1, Adenosine receptor A1
Description: Displacement of [3H]PIA from adenosine A1 receptor of rat brain membranes

[5] = target: T2, Adenosine receptor A1 (Rattus norvegicus) (UniProt P25099); experiment: Maximal inhibition of adenylate cyclase activity relative to R-PIA for Adenosine A1 receptor (Inhibition by R-PIA=53+/-10%)
T2 sequence (whole entry): T1 sequence (P25099 whole entry)

[6] = A1 selectivity as ratio of EC50 at A2 receptor to IC50 at A1 receptor

| SMILES | IC50 (Homo sapiens) [nM] | EC50 (Adenosine A2 receptor [1]) [nM] | IC50 (Adenosine receptor A1 [2]) [nM] | Ki (Adenosine A2 receptor [3]) [nM] | Ki (Adenosine receptor A1 [4]) [nM] | relative max inhibition [5] [%] | Selectivity [6] |
| --- | --- | --- | --- | --- | --- | --- | --- |
| CCNC(=O)[C@H]1O[C@@H](n2cnc3c(N)ncnc32)[C@H](O)[C@@H]1O [NECA] | 600 |  |  |  |  |  |  |
| Nc1ncnc2c1ncn2[C@@H]1O[C@H](CO)[C@@H](O)[C@H]1O [ADENOSINE] | 5940 |  |  |  |  |  |  |
| OC[C@H]1O[C@@H](n2cnc3c(NC4CCCC4)cc(Cl)nc32)[C@H](O)[C@@H]1O |  | 28000 | 360 | 13200 | 1.6 | 107 | 78 |
| CC(Cc1ccccc1)Nc1ccnc2c1ncn2C1O[C@H](CO)[C@@H](O)[C@H]1O (stereo partly drawn) |  | 6600 | 630 | 4900 | 7.7 | 116 | 10.5 |
| OC[C@H]1O[C@@H](n2cnc3c(NC4CCCCC4)cc(Cl)nc32)[C@H](O)[C@@H]1O |  | 4800 | 2400 | 8200 | 47 | 114 | 2 |
| Nc1ccnc2c1ncn2[C@@H]1O[C@H](CO)[C@@H](O)[C@H]1O | 65500 | 18000 | 6700 | 2900 | 115 | 97 | 2.7 |
| OC[C@H]1O[C@@H](n2cnc3c(NC4CCCC4)ccnc32)[C@H](O)[C@@H]1O |  | 26000 | 970 | 17600 | 7.5 | 107 | 27 |
| CC(Cc1ccccc1)Nc1cc(Cl)nc2c1ncn2C1O[C@H](CO)[C@@H](O)[C@H]1O (stereo partly drawn) |  | 3500 | 960 | 3700 | 18 | 108 | 3.6 |
| CCNC(=O)[C@H]1O[C@@H](n2cnc3c(N)ccnc32)[C@H](O)[C@@H]1O | 5960 | 2800 | 1500 | 580 | 51 | 104 | 1.9 |
| OC[C@H]1O[C@@H](n2cnc3c(NC4CCCCC4)ccnc32)[C@H](O)[C@@H]1O |  | 20000 | 1600 | 6800 | 16 | 109 | 12.4 |
| OC[C@H]1O[C@@H](n2cnc3c(NC4CCCC4)ncnc32)[C@H](O)[C@@H]1O [N6-CYCLOPENTYLADENOSINE] |  |  |  | 2000 |  |  |  |

Source: ChEMBL document CHEMBL1124132, “Adenosine receptor agonists: synthesis and biological evaluation of 1-deaza analogues of adenosine derivatives” (J Med Chem, 1988)
